# Measured values as given in patent publication US6780872B2, “Tricyclic dihydropyrazolone and tricyclic dihydroisoxazolone potassium channel openers” (Abbott Laboratories, priority 2000, dated 2004).
# System: guinea-pig urinary bladder (GPB) cells
# Experiment: Membrane hyperpolarization (MHP) assay, DiBAC(4)3 dye, FLIPR
# Format: cell-based
# Conditions: Cavia porcellus; for Emax: maximal steady-state hyperpolarization in GPB cells, normalized to response with 10 μM P1075 (=100%); for EC50: membrane hyperpolarization in GPB cells, concentration eliciting 50% of the maximal response of the test sample
# Procedure: Compounds were evaluated for potassium channel opening activity using primary cultured guinea-pig urinary bladder (GPB) cells.
# For the preparation of urinary bladder smooth muscle cells, urinary bladders were removed from male guinea-pigs (Hartley, Charles River, Wilmington, Mass.) weighing 300-400 g and placed in ice-cold Ca^2+-free Krebs solution (Composition, mM: KCl, 2.7; KH2PO4, 1.5; NaCl, 75; Na2HPO4, 9.6; Na2HPO4.7H2O, 8; MgSO4, 2; glucose, 5; HEPES, 10; pH 7.4). Cells were isolated by enzymatic dissociation as previously described with minor modifications in (Klockner, U. and Isenberg, G., Pflugers Arch. 1985, 405, 329-339), hereby incorporated by reference. The bladder was cut into small sections and incubated in 5 mL of the Kreb's solution containing 1 mg/mL collagenase (Sigma, St. Louis, Mo.) and 0.2 mg/mL pronase (Calbiochem, La Jolla, Calif.) with continuous stirring in a cell incubator for 30 minutes. The mixture was then centrifuged at 1300×g for 5 minutes, and the pellet resuspended in Dulbecco's PBS (GIBCO, Gaithersburg, Md.) and recentrifuged to remove residual enzyme. The cell pellet was resuspended in 5 mL growth media (composition: Dulbecco's modified Eagle's medium supplemented with 10% fetal bovine serum, 100 units/mL penicillin, 100 units/mL streptomycin and […] amphotericin B) and further dissociated by pipetting the suspension through a flame-polished Pasteur pipette and passing it through a polypropylene mesh membrane (Spectrum, Houston, Tex.). The cell density was adjusted to 100,000 cells/mL by resuspension in growth media. Cells were plated in clear-bottomed black 96-well plates (Packard) for membrane potential studies at a density of 20,000 cells/well and maintained in a cell incubator with 90% air: 10% CO2 until confluent. Cells were confirmed to be of smooth muscle type by cytoskeletal staining using a monoclonal mouse anti human-α-smooth muscle actin (Biomeda, Foster City, Calif.).
# Functional activity at potassium channels was measured by evaluating changes in membrane potential using the bis-oxonol dye DiBAC(4)3 (Molecular Probes) in a 96-well cell-based kinetic assay system, Fluorescent Imaging Plate Reader (FLIPR) (K. S. Schroeder et al., J. Biomed. Screen., v. 1 pp. 7581 (1996)), hereby incorporated by reference. DiBAC(4) is an anionic potentiometric probe which partitions between cells and extracellular solution in a membrane potential-dependent manner. With increasing membrane potential (for example, K^+ depolarization), the probe further partitions into the cell; this is measured as an increase in fluorescence due to dye interaction with intracellular lipids and proteins. Conversely, decreasing membrane potential (hyperpolarization by potassium channel openers) evokes a decrease in fluorescence.
# Confluent guinea-pig urinary bladder cells cultured in black clear-bottomed 96-well plates were rinsed twice with […] assay buffer (composition, mM: HEPES, 20; NaCl, 120; KCl, 2; CaCl2, 2; MgCl2, 1; glucose, 5; pH 7.4 at 25° C.) containing 5 μM DiBAC(4) and incubated with […] of the buffer in a cell incubator for 30 minutes at 37° C. to ensure dye distribution across the membrane. After recording the baseline fluorescence for 5 minutes, the reference or test compounds, prepared at 10 times the concentration in the assay buffer, were added directly to the wells. Changes in fluorescence were monitored for an additional 25 minutes. Hyperpolarization responses were corrected for any background noise and were normalized to the response observed with 10 μM of the reference compound P1075, N″-cyano-N-(tert-pentyl)-N′-(3-pyridinyl)guanidine, which was assigned as 100%. P1075 is a potent opener of smooth muscle KATP channels (Quast et al., Mol. Pharmacol., v. 43 pp. 474-481 (1993)) and was prepared using the procedures described in (Manley, J. Med. Chem. (1992) 35, 2327-2340), hereby incorporated by reference. […]
EC50 [nM],Structure (SMILES),Emax [%]
520,"Cn1[nH]c(=O)c2c1NC1=C(C(=O)OC1)C2c1ccc(F)c(Br)c1 (stereo not drawn) [Example 32, 4-(3-bromo-4-fluorophenyl)-1-methyl-4,8-dihydro-1H-furo[3,4-b]pyrazolo[4,3-e]pyridine-3,5(2H,7H)-dione]",73
50,"Cn1[nH]c(=O)c2c1NC1=C(C(=O)COC1)C2c1ccc(F)c(Br)c1 (stereo not drawn) [Example 26, 4-(3-bromo-4-fluorophenyl)-1-methyl-1,2,4,9-tetrahydropyrano[3,4-b]pyrazolo[4,3-e]pyridine-3,5(6H,8H)-dione]",99
> 10000,"Cn1[nH]c(=O)c2c1NC1=C(C2c2ccc(F)c(Br)c2)S(=O)(=O)CC1 (stereo not drawn) [Example 21, 4-(3-bromo-4-fluorophenyl)-1-methyl-1,2,4,6,7,8-hexahydro-3H-pyrazolo[3,4-b]thieno[2,3-e]pyridin-3-one 5,5-dioxide]",
760,"Cn1[nH]c(=O)c2c1NC1=C(C(=O)OCC1)C2c1ccc(F)c(Br)c1 (stereo not drawn) [Example 31, 4-(3-bromo-4-fluorophenyl)-1-methyl-1,2,4,7,8,9-hexahydropyrano[4,3-b]pyrazolo[4,3-e]pyridine-3,5-dione]",96
330,"Cn1[nH]c(=O)c2c1NC1=C(C(=O)C(C)(C)CC1)C2c1ccc(F)c(Br)c1 (stereo not drawn) [Example 22, 4-(3-bromo-4-fluorophenyl)-1,6,6-trimethyl-4,7,8,9-tetrahydro-1H-pyrazolo[3,4-b]quinoline-3,5(2H,6H)-dione]",105
70,"Cn1[nH]c(=O)c2c1NC1=C(C(=O)C(C)(C)CC1)C2c1ccc(F)c(I)c1 (stereo not drawn) [Example 23, 4-(4-fluoro-3-iodophenyl)-1,6,6-trimethyl-4,7,8,9-tetrahydro-1H-pyrazolo[3,4-b]quinoline-3,5(2H,6H)-dione]",90
3200,"Cn1[nH]c(=O)c2c1NC1=C(C(=O)C(C)(C)CC1)C2c1ccc(F)c(-c2ccco2)c1 (stereo not drawn) [Example 25, 4-[4-fluoro-3-(2-furyl)phenyl]-1,6,6-trimethyl-4,7,8,9-tetrahydro-1H-pyrazolo[3,4-b]quinoline-3,5(2H,6H)-dione]",78
180,"Cn1[nH]c(=O)c2c1NC1=C(C(=O)C(C)(C)CC1)C2c1ccc(Cl)c(Cl)c1 (stereo not drawn) [Example 24, 4-(3,4-dichlorophenyl)-1,6,6-trimethyl-4,7,8,9-tetrahydro-1H-pyrazolo[3,4-b]quinoline-3,5(2H,6H)-dione]",82
> 10000,"O=C1CCC2=C1C(c1ccc(F)c(Br)c1)c1c([nH]n(-c3ccccc3)c1=O)N2 (stereo not drawn) [Example 20, 4-(3-bromo-4-fluorophenyl)-2-phenyl-1,2,4,6,7,8-hexahydrocyclopenta[b]pyrazolo[4,3-e]pyridine-3,5-dione]",48
> 10000,"Cn1[nH]c2c(c1=O)C(c1ccc(F)c(Br)c1)C1=C(CCC1=O)N2 (stereo not drawn) [Example 19, 4-(3-bromo-4-fluorophenyl)-2-methyl-1,2,4,6,7,8-hexahydrocyclopenta[b]pyrazolo[4,3-e]pyridine-3,5-dione]",

# Second part, the compound before the results:
Structure (SMILES),EC50 [nM],Emax [%]
"O=C1CCCC2=C1C(c1ccc(F)c(Br)c1)c1c([nH][nH]c1=O)N2 (stereo not drawn) [Example 3, 4-(3-bromo-4-fluorophenyl)-4,7,8,9-tetrahydro-1H-pyrazolo[3,4-b]quinoline-3,5(2H,6H)-dione]",1720,82
"Cn1[nH]c(=O)c2c1NC1=C(C(=O)CC1)C2c1ccc2nsnc2c1 (stereo not drawn) [Example 17, 4-(2,1,3-benzothiadiazol-5-yl)-1-methyl-1,2,4,6,7,8-hexahydrocyclopenta[b]pyrazolo[4,3-e]pyridine-3,5-dione]",> 10000,
"Cn1[nH]c(=O)c2c1NC1=C(C(=O)CC1)C2c1ccc(F)c(Br)c1 (stereo not drawn) [Example 1, 4-(3-bromo-4-fluorophenyl)-1-methyl-1,2,4,6,7,8-hexahydrocyclopenta[b]pyrazolo[4,3-e]pyridine-3,5-dione]",550,91
"Cn1[nH]c(=O)c2c1NC1=C(C(=O)CC1)C2c1ccc2nonc2c1 (stereo not drawn) [Example 16, 4-(2,1,3-benzoxadiazol-5-yl)-1-methyl-1,2,4,6,7,8-hexahydrocyclopenta[b]pyrazolo[4,3-e]pyridine-3,5-dione]",> 10000,
"Cn1[nH]c(=O)c2c1NC1=C(C(=O)CC1)C2c1ccc(Cl)c([N+](=O)[O-])c1 (stereo not drawn) [Example 10, 4-(4-chloro-3-nitrophenyl)-1-methyl-1,2,4,6,7,8-hexahydrocyclopenta[b]pyrazolo[4,3-e]pyridine-3,5-dione]",2350,90
"Cn1[nH]c(=O)c2c1NC1=C(C(=O)CC1)C2c1ccc(F)c(I)c1 (stereo not drawn) [Example 12, 4-(4-fluoro-3-iodophenyl)-1-methyl-1,2,4,6,7,8-hexahydrocyclopenta[b]pyrazolo[4,3-e]pyridine-3,5-dione]",320,101
"Cn1[nH]c(=O)c2c1NC1=C(C(=O)CC1)C2c1csc([N+](=O)[O-])c1 (stereo not drawn) [Example 15, 1-methyl-4-(5-nitro-3-thienyl)-1,2,4,6,7,8-hexahydrocyclopenta[b]pyrazolo[4,3-e]pyridine-3,5-dione]",7700,58
"O=C1CCC2=C1C(c1ccc(F)c(Br)c1)c1c([nH][nH]c1=O)N2 (stereo not drawn) [Example 2, 4-(3-bromo-4-fluorophenyl)-1,2,4,6,7,8-hexahydrocyclopenta[b]pyrazolo[4,3-e]pyridine-3,5-dione]",2770,90
"CC(C)(C)n1[nH]c(=O)c2c1NC1=C(C(=O)CC1)C2c1ccc(F)c(Br)c1 (stereo not drawn) [Example 5, 4-(3-bromo-4-fluorophenyl)-1-tert-butyl-1,2,4,6,7,8-hexahydrocyclopenta[b]pyrazolo[4,3-e]pyridine-3,5-dione]",> 10000,
"Cn1[nH]c(=O)c2c1NC1=C(C(=O)CCC1)C2c1ccc(F)c(Br)c1 (stereo not drawn) [Example 18, 4-(3-bromo-4-fluorophenyl)-1-methyl-4,7,8,9-tetrahydro-1H-pyrazolo[3,4-b]quinoline-3,5(2H,6H)-dione]",1970,80
"Cn1[nH]c(=O)c2c1NC1=C(C(=O)CC1)C2c1ccc(OC(F)(F)F)cc1 (stereo not drawn) [Example 7, 1-methyl-4-[4-(trifluoromethoxy)phenyl]-1,2,4,6,7,8-hexahydrocyclopenta[b]pyrazolo[4,3-e]pyridine-3,5-dione]",> 10000,
"O=C1CCC2=C1C(c1ccc(F)c(Br)c1)c1c(n(-c3ccccn3)[nH]c1=O)N2 (stereo not drawn) [Example 6, 4-(3-bromo-4-fluorophenyl)-1-(2-pyridinyl)-1,2,4,6,7,8-hexahydrocyclopenta[b]pyrazolo[4,3-e]pyridine-3,5-dione]",> 10000,
"Cn1[nH]c(=O)c2c1NC1=C(C(=O)CC1)C2c1ccc(Cl)c(Cl)c1 (stereo not drawn) [Example 13, 4-(3,4-dichlorophenyl)-1-methyl-1,2,4,6,7,8-hexahydrocyclopenta[b]pyrazolo[4,3-e]pyridine-3,5-dione]",670,101
"Cn1[nH]c(=O)c2c1NC1=C(C(=O)CC1)C2c1ccc(F)c(-c2ccco2)c1 (stereo not drawn) [Example 14, 4-[4-fluoro-3-(2-furyl)phenyl]-1-methyl-1,2,4,6,7,8-hexahydrocyclopenta[b]pyrazolo[4,3-e]pyridine-3,5-dione]",> 10000,
"Cc1ccc(C2C3=C(CCC3=O)Nc3c2c(=O)[nH]n3C)cc1I (stereo not drawn) [Example 11, 4-(3-iodo-4-methylphenyl)-1-methyl-1,2,4,6,7,8-hexahydrocyclopenta[b]pyrazolo[4,3-e]pyridine-3,5-dione]",530,109
